ChEMBL document CHEMBL1157531, “Sinulaflexiolides A-K, cembrane-type diterpenoids from the chinese soft coral Sinularia flexibilis” (J Nat Prod, 2008)

Test: Cytotoxicity against human […] cells
Type: functional, cell-based

| Structure (SMILES) | IC50 |
| --- | --- |
| C=C1C(=O)O[C@]2(C)CC[C@@H]1C[C@H]1O[C@@]1(C)CC[C@H](OC(C)=O)[C@@]1(C)CC[C@@H]2O1 | > 10 µg/mL |
| C=C1C(=O)O[C@@H]2C[C@H]1CC/C(C)=C/CC/C(C)=C/CC[C@]2(C)O | > 10 µg/mL |
| C=C1C(=O)O[C@]2(C)CC[C@@H]1C[C@@H](O)[C@@](C)(O)CC/C=C(\C)CC[C@@H]2O [CAPILLOLIDE] | > 10 µg/mL |
| C=C1C(=O)O[C@]2(C)CC[C@@H]1C[C@H](O)/C(C)=C/C/C=C(\C)CC[C@@H]2OC(C)=O [DENDRONPHOLIDE A] | > 10 µg/mL |
| C=C(C(=O)OC)[C@@H]1CC[C@@](C)(O)[C@@H]2CC[C@@](C)(O2)[C@@H](OC(C)=O)CC[C@]2(C)O[C@@H]2C1 [SINULAFLEXIOLIDE E] | 8.5 µM |
| C=C(C(=O)OCC)[C@@H]1CC[C@@](C)(O)[C@@H]2CC[C@@](C)(O2)[C@@H](OC(C)=O)CC[C@]2(C)O[C@@H]2C1 [SINULAFLEXIOLIDE F] | 0.12 µM |
